Legend:
[1] = target: T1, hVR1 (Homo sapiens, UniProt Q8NER1); experiment: Functional test on hVR1 after pH stimulus; format: cell-based, human being; parameters: key to IC50 (human being) hVR1, pH: agonist / partial agonist / no effect: AG=agonist; pAG=partial agonist; NE=no effect; details: for inhibition at 10 µM: read-out: IC50 (human being) hVR1, pH: inhibition (as a percentage); for IC50: includes value printed in brackets after pAG, read-out: IC50 (human being) hVR1 [nM], pH
T1 construct: expressed in transfected cells; host or cells: CHO K1 cells (ECACC), stably transfected

[2] = target: T1, hVR1; experiment: Functional test on human VR1, NADA (N-arachidonoyl dopamine) stimulus; format: cell-based, human being; parameters: key to Ki (human being) NADA: agonist / partial agonist / no effect: AG=agonist; pAG=partial agonist; NE=no effect; details: for Ki: includes values given in brackets after pAG, read-out: Ki (human being) [nM] NADA
Text: II. Functional Tests Carried Out on the Vanilloid Receptor (VR1)
The agonistic or antagonistic effect of the substances to be tested on the vanilloid receptor 1 (VR1) can also be determined using the following assay. In this assay, the influx of Ca^2+ through the channel is quantified with the aid of a Ca^2+-sensitive dye (type Fluo-4, Molecular Probes Europe BV, Leiden, the Netherlands) in a fluorescent imaging plate reader (FLIPR, Molecular Devices, Sunnyvale, USA).
Chinese hamster ovary cells (CHO K1 cells, European Collection of Cell Cultures (ECACC) United Kingdom) are stably transfected with the VR1 gene. For functional testing, these cells are plated out on poly-D-lysine-coated black 96-well plates having a clear base (BD Biosciences, Heidelberg, Germany) at a density of 25,000 cells/well. The cells are incubated overnight at 37° C. and 5% CO2 in a culture medium (Ham's F12 nutrient mixture, 10% by volume of FCS (foetal calf serum), 18 μg/ml of L-proline). The next day the cells are incubated with Fluo-4 (Fluo-4 2 μM, 0.01% by volume of Pluronic F127, Molecular Probes in HBSS (Hank's buffered saline solution), Gibco Invitrogen GmbH, Karlsruhe, Germany) for 30 minutes at 37° C. Subsequently, the plates are washed three times with HBSS buffer and after further incubation for 15 minutes at RT used for Ca^2+ measurement in a FLIPR assay. The Ca^2+-dependent fluorescence is measured before and after the addition of the substances to be tested (λex wavelength=488 nm, λem=540 nm). Quantification is carried out by measuring the highest fluorescence intensity (FC, fluorescence counts) over time.
The FLIPR protocol consists of 2 substance additions. First the compounds to be tested (10 μM) are pipetted onto the cells and the Ca^2+ influx is compared with the control (capsaicin 10 μM) (% activation based on the Ca^2+ signal after the addition of 10 μM of capsaicin). […]
Desensitising agonists and antagonists led to suppression of the Ca^2+ influx. The % inhibition is calculated compared to the maximum achievable inhibition with 10 μM of capsaicin.
Starting from the percentage displacement caused by different concentrations of the compounds to be tested of general formula I, IC50 inhibitory concentrations which cause a 50-per cent displacement of capsaicin were calculated. Ki values for the test substances were obtained by conversion by means of the Cheng-Prusoff equation (Cheng, Prusoff; Biochem. Pharmacol. 22, 3099-3108, 1973).
NADA=N-arachidonoyl dopamine

[3] = target: T1, hVR1; experiment: Functional test on human VR1, 45° C. stimulus; format: cell-based, human being; parameters: key to IC50 (human being), 45° C.: agonist / partial agonist / no effect: AG=agonist; pAG=partial agonist; NE=no effect; details: for IC50: read-out: IC50 (human being) [nM], 45° C.
[4] = target: T1, hVR1; experiment: Functional test on VR1, FLIPR Ca2+ influx in transfected CHO K1 cells, capsaicin; format: cell-based, human being; parameters: key to Ki (human being) [nM] Cap: agonist / partial agonist / no effect: AG=agonist; pAG=partial agonist; NE=no effect; details: for Ki: includes values given in brackets after pAG, read-out: Ki (human being) [nM] Cap
[5] = target: T2, rat-species vanilloid receptor 1 (VR1/TRPV1) (Rattus norvegicus, UniProt O35433); experiment: Functional testing on the vanilloid receptor 1, FLIPR Ca2+ influx in rat DRG cells, capsaicin; format: cell-based; parameters: key to Ki (rat) [nM] Cap: agonist / partial agonist / no effect: AG=agonist; pAG=partial agonist; NE=no effect; details: for Ki: capsaicin (Cap), includes values given in brackets after pAG
T2 construct: endogenous in cells; host or cells: primary cells dissociated from rat dorsal root ganglia (DRG), cultured 2-3 days with NGF
Text: I. Functional Testing Carried Out on the Vanilloid Receptor 1 (VRI/TRPV1 Receptor)
The agonistic or antagonistic effect of the substances to be tested on the rat-species vanilloid receptor 1 (VR1/TRPV1) can be determined using the following assay. In this assay, the influx of Ca^2+ through the receptor channel is quantified with the aid of a Ca^2+-sensitive dye (type Fluo-4, Molecular Probes Europe BV, Leiden, the Netherlands) in a fluorescent imaging plate reader (FLIPR, Molecular Devices, Sunnyvale, USA).
Complete medium: 50 ml HAMS F12 nutrient mixture (Gibco Invitrogen GmbH, Karlsruhe, Germany) with
10% by volume of FCS (foetal calf serum, Gibco Invitrogen GmbH, Karlsruhe, Germany, heat-inactivated);
2 mM L-glutamine (Sigma, Munich, Germany);
1% by weight of AA solution (antibiotic/antimyotic solution, PAA, Pasching, Austria) and 25 ng/ml NGF medium (2.5 S, Gibco Invitrogen GmbH, Karlsruhe, Germany)
Cell culture plate: Poly-D-lysine-coated, black 96-well plates having a clear base (96-well black/clear plate, BD Biosciences, Heidelberg, Germany) are additionally coated with laminin (Gibco Invitrogen GmbH, Karlsruhe, Germany), the laminin being diluted with PBS (Ca—Mg-free PBS, Gibco Invitrogen GmbH, Karlsruhe, Germany) to a concentration of 100 μg/ml. Aliquots having a laminin concentration of 100 μg/ml are removed and stored at −20° C. The aliquots are diluted with PBS in a ratio of 1:10 to 10 μg/ml of laminin and respectively 50 μL of the solution are pipetted into a recess in the cell culture plate. The cell culture plates are incubated for at least two hours at 37° C., the excess solution is removed by suction and the recesses are each washed twice with PBS. The coated cell culture plates are stored with excess PBS which is not removed until just before the feeding of the cells.
Preparation of the Cells:
The vertebral column is removed from decapitated rats and placed immediately into cold HBSS buffer (Hank's buffered saline solution, Gibco Invitrogen GmbH, Karlsruhe, Germany), i.e. buffer located in an ice bath, mixed with 1% by volume (per cent by volume) of an AA solution (antibiotic/antimyotic solution, PAA, Pasching, Austria). The vertebral column is cut longitudinally and removed together with fasciae from the vertebral canal. Subsequently, the dorsal root ganglia (DRG) are removed and again stored in cold HBSS buffer mixed with 1% by volume of an AA solution. The DRG, from which all blood remnants and spinal nerves have been removed, are transferred in each case to 500 μL of cold type 2 collagenase (PAA, Pasching, Austria) and incubated for 35 minutes at 37° C. After the addition of 2.5% by volume of trypsin (PAA, Pasching, Austria), incubation is continued for 10 minutes at 37° C. After complete incubation, the enzyme solution is carefully pipetted off and 500 μL of complete medium are added to each of the remaining DRG. The DRG are respectively suspended several times, drawn through cannulae No. 1, No. 12 and No. 16 using a syringe and transferred to a 50 ml Falcon tube which is filled up to 15 ml with complete medium. The contents of each Falcon tube are respectively filtered through a 70 μm Falcon filter element and centrifuged for 10 minutes at 1,200 rpm and RT. The resulting pellet is respectively taken up in 250 μL of complete medium and the cell count is determined.
The number of cells in the suspension is set to 3×10^5 per ml and 150 μL of this suspension are in each case introduced into a recess in the cell culture plates coated as described hereinbefore. In the incubator the plates are left for two to three days at 37° C., 5% by volume of CO2 and 95% relative humidity. […]

[6] = read-out: IC50 (human being), 45° C.: inhibition (as a percentage)

T2 sequence (O35433 whole entry): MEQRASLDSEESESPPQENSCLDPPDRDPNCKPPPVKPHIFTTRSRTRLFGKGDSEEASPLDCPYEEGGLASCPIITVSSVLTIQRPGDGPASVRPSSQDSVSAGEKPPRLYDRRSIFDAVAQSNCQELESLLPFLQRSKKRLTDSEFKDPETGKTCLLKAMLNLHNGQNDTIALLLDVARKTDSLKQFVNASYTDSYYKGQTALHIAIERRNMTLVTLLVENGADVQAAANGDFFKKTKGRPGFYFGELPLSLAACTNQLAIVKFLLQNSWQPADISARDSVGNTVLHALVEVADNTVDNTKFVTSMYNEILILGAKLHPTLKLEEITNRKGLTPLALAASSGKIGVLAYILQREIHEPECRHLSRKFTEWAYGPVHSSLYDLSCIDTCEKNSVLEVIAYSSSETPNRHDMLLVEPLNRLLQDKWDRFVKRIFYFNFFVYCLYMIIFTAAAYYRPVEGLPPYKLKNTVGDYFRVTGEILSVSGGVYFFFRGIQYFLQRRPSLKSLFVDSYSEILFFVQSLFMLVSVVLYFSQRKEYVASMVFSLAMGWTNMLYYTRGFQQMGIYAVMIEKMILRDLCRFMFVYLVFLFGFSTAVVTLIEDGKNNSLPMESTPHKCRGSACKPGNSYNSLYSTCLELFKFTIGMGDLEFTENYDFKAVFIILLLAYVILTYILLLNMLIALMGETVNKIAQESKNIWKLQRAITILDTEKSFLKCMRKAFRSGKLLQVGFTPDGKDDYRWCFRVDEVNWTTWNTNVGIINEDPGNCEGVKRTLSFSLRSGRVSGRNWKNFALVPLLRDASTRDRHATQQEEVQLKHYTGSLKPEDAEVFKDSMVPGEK
T1 sequence (Q8NER1 whole entry): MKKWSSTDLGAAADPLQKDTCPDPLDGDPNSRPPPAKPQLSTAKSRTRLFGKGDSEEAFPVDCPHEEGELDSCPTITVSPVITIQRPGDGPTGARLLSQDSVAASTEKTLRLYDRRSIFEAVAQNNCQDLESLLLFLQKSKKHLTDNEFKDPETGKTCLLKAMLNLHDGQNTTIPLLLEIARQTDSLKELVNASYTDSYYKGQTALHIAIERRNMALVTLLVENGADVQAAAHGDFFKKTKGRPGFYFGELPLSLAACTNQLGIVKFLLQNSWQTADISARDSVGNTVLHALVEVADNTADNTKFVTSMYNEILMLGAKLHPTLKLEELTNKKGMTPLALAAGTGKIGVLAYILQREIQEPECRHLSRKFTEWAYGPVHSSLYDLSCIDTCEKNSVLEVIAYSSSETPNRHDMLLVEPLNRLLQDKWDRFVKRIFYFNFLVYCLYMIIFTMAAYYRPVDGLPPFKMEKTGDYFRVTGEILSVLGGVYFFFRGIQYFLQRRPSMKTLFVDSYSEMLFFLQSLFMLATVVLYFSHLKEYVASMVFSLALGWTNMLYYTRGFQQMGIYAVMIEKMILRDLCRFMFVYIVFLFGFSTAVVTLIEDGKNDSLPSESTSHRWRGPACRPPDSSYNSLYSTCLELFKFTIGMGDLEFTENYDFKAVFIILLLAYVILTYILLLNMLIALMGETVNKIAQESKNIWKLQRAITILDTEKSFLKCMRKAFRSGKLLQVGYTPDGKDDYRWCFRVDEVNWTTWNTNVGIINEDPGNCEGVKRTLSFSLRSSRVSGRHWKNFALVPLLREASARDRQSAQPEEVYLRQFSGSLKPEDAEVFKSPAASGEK

Ki (human being) NADA: agonist / partial agonist / no effect [2] | Ki (human being) [nM] Cap: agonist / partial agonist / no effect [4] | Ki ([4]; capsaicin (Cap)) [nM] | Ki [2] [nM] | Ki [5] [nM] | Structure (SMILES) | also measured
pAG | pAG | 75.4 | – | – | CC(C(=O)NCc1cc(C(C)(C)C)nn1-c1cccc(Cl)c1)c1ccc2c(c1)CCN2S(C)(=O)=O (centres unmarked) [Example 10, N-((3-tert-butyl-1-(3-chlorophenyl)-1H-pyrazol-5-yl)methyl)-2-(1-(methylsulphonyl)indolin-5-yl)propanamide] | inhibition at 10 µM [1]: 42%; inhibition at 2 µM [3, 6]: 6%
– | – | 0.3 | 0.04 | – | CC(C(=O)NCc1cc(C(F)(F)F)nn1-c1ccc(Cl)cc1)c1cccc2cnccc12 (centres unmarked) [Example 68, N-((1-(4-chlorophenyl)-3-(trifluoromethyl)-1H-pyrazol-5-yl)methyl)-2-(isoquinolin-5-yl)propanamide] | inhibition at 10 µM [1]: 33%; IC50 [3]: 245 nM
– | – | 77.9 | – | 135 | CC(C)(C)c1cc(CNC(=O)Cc2ccc3c(c2)OCCO3)n(-c2ccc(Cl)cc2)n1 [Example 12, N-((3-tert-butyl-1-(4-chlorophenyl)-1H-pyrazol-5-yl)methyl)-2-(2,3-dihydrobenzo[b][1,4]dioxin-6-yl)acetamide] | inhibition at 2 µM ([2]; @ 2 μM, read-out: Ki (human being) NADA column: inhibition (as a percentage)): 58%; inhibition at 2 µM [3, 6]: 18%
pAG | pAG | 0.2 | – | – | CC(C)(C)c1cc(CNC(=O)Nc2cccc3cnccc23)n(-c2cccc(Cl)c2)n1 [Example 109, 1-((3-tert-butyl-1-(3-chlorophenyl)-1H-pyrazol-5-yl)methyl)-3-(isoquinolin-5-yl)urea] | IC50 (human being) hVR1, pH: agonist / partial agonist / no effect [1]: pAG; IC50 (human being), 45° C.: agonist / partial agonist / no effect [3]: pAG
AG | AG | – | – | – | CC(C)(C)c1cc(CNC(=O)Nc2cccc3ncccc23)n(-c2cccc(Cl)c2)n1 [Example 111, 1-((3-tert-butyl-1-(3-chlorophenyl)-1H-pyrazol-5-yl)methyl)-3-(quinolin-5-yl)urea] | IC50 (human being) hVR1, pH: agonist / partial agonist / no effect [1]: AG; IC50 (human being), 45° C.: agonist / partial agonist / no effect [3]: AG
– | – | – | 68.1 | – | CC(C(=O)NCc1cc(C(C)(C)C)nn1-c1cccc(Cl)c1)c1ccc2cccnc2c1 (centres unmarked) [Example 71, N-((3-tert-butyl-1-(3-chlorophenyl)-1H-pyrazol-5-yl)methyl)-2-(quinolin-7-yl)propanamide] | IC50 [3]: 2710 nM; inhibition at 10 µM ([4]; CHO-K1, @ 10 μM, capsaicin (Cap), read-out: Ki (human being) Cap column: inhibition (as a percentage)): 18%
pAG | – | 7.3 | 6.4 | 18.2 | CC(C)(C)c1cc(CNC(=O)Nc2cncc3ccccc23)n(-c2cccc(Cl)c2)n1 [Example 112, 1-((3-tert-butyl-1-(3-chlorophenyl)-1H-pyrazol-5-yl)methyl)-3-(isoquinolin-4-yl)urea] | –
– | – | 0.7 | – | 7.6 | CC(C(=O)NCc1cc(C(F)(F)F)nn1-c1cccc(Cl)c1)c1cccc2ccc(O)cc12 (centres unmarked) [Example 58, N-((1-(3-chlorophenyl)-3-(trifluoromethyl)-1H-pyrazol-5-yl)methyl)-2-(7-hydroxynaphthalen-1-yl)propanamide] | IC50 [1]: 4930 nM; inhibition at 2.5 µM ([3]; @ 2.5 μM, read-out: IC50 (human being), 45° C.: inhibition (as a percentage)): 41%
– | pAG | 25 | – | – | CC(C(=O)NCc1cc(C(C)(C)C)nn1-c1cccc(Cl)c1)c1ccc2c(c1)OCCCO2 (centres unmarked) [Example 15, N-((3-tert-butyl-1-(3-chlorophenyl)-1H-pyrazol-5-yl)methyl)-2-(3,4-dihydro-2H-benzo[b][1,4]dioxepin-7-yl)propanamide] | IC50 (human being) hVR1, pH: agonist / partial agonist / no effect [1]: pAG; IC50 [1]: 412 nM; Ki (rat) [nM] Cap: agonist / partial agonist / no effect [5]: AG; IC50 (human being), 45° C.: agonist / partial agonist / no effect [3]: pAG
– | – | 4.2 | 1.1 | 8.4 | CC(C(=O)NCc1cc(C(C)(C)C)nn1-c1cccc(Cl)c1)c1ccc2ocnc2c1 (centres unmarked) [Example 40, 2-(benzo[d]oxazol-5-yl)-N-((3-tert-butyl-1-(3-chlorophenyl)-1H-pyrazol-5-yl)methyl)propanamide] | –
– | – | 70.7 | 33.3 | – | CC(C)(C)c1cc(CNC(=O)Nc2cnc3ccccc3c2)n(-c2cccc(Cl)c2)n1 [Example 113, 1-((3-tert-butyl-1-(3-chlorophenyl)-1H-pyrazol-5-yl)methyl)-3-(quinolin-3-yl)urea] | –

From patent US8334315B2, “Substituted aromatic carboxamide and urea derivatives as vanilloid receptor ligands” (Gruenenthal GmbH, priority 2009, dated 2012)
